Reference: paper PMC10424242, “Macrocyclic Peptidomimetic Plasmepsin X Inhibitors with Potent In Vitro and In Vivo Antimalarial Activity” (Journal of Medicinal Chemistry, 2023)
Entries after “also recorded” stand apart in the source; their conditions may differ. Like-named read-outs stand apart in the source and are kept apart here.

Assays:
[1] = Liver microsomal metabolic stability; type: in vitro ADME, mouse; conditions: pooled liver microsomes, pH 7.4, mouse liver microsomes, 5 μM; for microsomal CLint at 1 h, 5 μM: read-out: microsomal stability CL(int)
Description: Microsomal stability assays are performed as described elsewhere.[41] Test compounds and pooled mouse liver microsomes are incubated in potassium phosphate buffer in the presence of the cofactor NADPH at 37 °C. Reaction mixtures (700 μL) contain a final concentration of 5 μM test compound, 0.05% DMSO, 0.5 mg/mL microsomes, and ∼0.7–0.9 mM NADPH in 100 mM potassium phosphate buffer at pH 7.4. Reactions are terminated by the addition of 100 μL of the reaction mixture to 900 μL of acetonitrile after 0, 5, 15, 30, 45, and 60 min of incubation. Samples were centrifuged, and the resultant supernatant was analyzed by ultra-performance liquid chromatography–tandem mass spectrometry (UPLC-MS/MS). The amount of remaining compound is calculated and compared to the initial amount of test compound (zero time point). Verapamil is used as a positive control, and samples prepared without cofactor NADPH are used as a negative control (0 and 60 min). The in vitro metabolic stability parameters (half-life value (t1/2) and intrinsic clearance value (Clint)) are calculated from the slope of the Ln of concentration remaining vs the time curve.

[2] = Plasma protein binding (rapid equilibrium dialysis); type: in vitro ADME; conditions: pH 7.4, mouse plasma, 2 h at 37 °C
Description: Plasma protein binding was performed with rapid equilibrium dialysis (RED) device inserts containing a dialysis membrane with a molecular weight cut-off of 8000 Daltons. Inserts were placed in the single-use RED plate without prior preparation.
The test compound at a concentration of 5 μM was added to mouse plasma and dialyzed against phosphate-buffered saline (PBS, pH 7.4) for 2 h at 37 °C. Propranolol hydrochloride was used as a positive control (high PPB), and fluconazole was used as negative control (low PPB). After dialysis, the drug concentration in the buffer and plasma compartments was quantified by liquid chromatography and tandem mass spectrometry (LC-MS/MS) analysis.

[3] = molecular target: recombinant P. falciparum PMX (Plasmodium falciparum, UniProt Q8IAS0); experiment: Recombinant P. falciparum PMX inhibition assay (fluorogenic substrate Rh2N); type: biochemical
Chain of recombinant P. falciparum PMX (Q8IAS0 222-573): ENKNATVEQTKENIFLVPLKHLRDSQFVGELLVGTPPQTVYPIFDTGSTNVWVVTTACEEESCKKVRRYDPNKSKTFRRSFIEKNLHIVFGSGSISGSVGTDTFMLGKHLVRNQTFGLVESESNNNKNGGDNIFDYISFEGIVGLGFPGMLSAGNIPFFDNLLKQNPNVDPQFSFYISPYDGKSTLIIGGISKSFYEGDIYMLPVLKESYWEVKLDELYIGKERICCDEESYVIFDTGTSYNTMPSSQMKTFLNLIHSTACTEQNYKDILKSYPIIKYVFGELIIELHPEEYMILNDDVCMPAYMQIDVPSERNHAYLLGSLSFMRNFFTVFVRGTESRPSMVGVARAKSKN
Description: The fluorescence of this peptide is quenched by the spatial proximity of the DABCYL/EDANS groups in the uncleaved peptide and is increased upon cleavage at the internal F–I bond. […] Control wells contained no inhibitor, and the plate was blanked against the substrate only in DB. […] All experiments were performed in duplicate.

PMIV = PMIV (Plasmodium falciparum, UniProt Q8IM16); experiment: FRET-based PMIV inhibition assay; type: biochemical, P. falciparum
Chain of PMIV (Q8IM16 122-449): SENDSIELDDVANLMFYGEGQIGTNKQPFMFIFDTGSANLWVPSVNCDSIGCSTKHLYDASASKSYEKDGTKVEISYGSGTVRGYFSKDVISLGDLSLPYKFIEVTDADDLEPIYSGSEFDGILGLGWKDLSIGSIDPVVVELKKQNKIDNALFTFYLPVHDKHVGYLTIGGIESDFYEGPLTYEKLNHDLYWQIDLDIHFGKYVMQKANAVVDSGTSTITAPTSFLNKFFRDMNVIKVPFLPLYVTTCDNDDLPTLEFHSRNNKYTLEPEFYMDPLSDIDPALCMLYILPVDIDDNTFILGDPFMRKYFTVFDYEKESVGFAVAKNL
Description: (§1) A fluorescence resonance energy transfer (FRET)-based assay was performed to assess the ability of the compounds to inhibit PMIV, CatD, and BACE1. Serial dilutions of test compounds were dispensed in a white 96-well plate. […] The mixture was incubated for 20 min at 37 °C. […] IC50 values were calculated with GraphPad Prism 8.0 using the nonlinear regression, variable slope (four parameters). Compounds were tested in triplicate.

BACE1 = BACE1 (Homo sapiens, UniProt P56817); experiment: FRET-based BACE1 inhibition assay (selectivity counter screen); type: biochemical
Chain of BACE1 (P56817 46-501): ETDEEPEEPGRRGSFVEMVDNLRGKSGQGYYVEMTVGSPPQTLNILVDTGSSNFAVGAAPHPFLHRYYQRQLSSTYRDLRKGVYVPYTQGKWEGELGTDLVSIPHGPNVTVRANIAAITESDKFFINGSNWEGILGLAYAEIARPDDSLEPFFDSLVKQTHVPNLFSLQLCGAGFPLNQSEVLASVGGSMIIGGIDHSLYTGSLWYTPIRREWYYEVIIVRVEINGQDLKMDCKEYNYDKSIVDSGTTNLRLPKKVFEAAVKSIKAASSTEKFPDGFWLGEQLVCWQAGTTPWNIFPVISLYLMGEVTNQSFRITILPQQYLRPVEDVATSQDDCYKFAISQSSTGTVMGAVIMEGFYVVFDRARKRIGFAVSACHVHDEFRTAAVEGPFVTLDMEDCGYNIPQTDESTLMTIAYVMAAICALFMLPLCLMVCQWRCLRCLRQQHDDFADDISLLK
Description: as §1

cathepsin D (CatD) = cathepsin D (CatD) (Homo sapiens, UniProt P07339); experiment: FRET-based CatD inhibition assay (selectivity counter screen); type: biochemical
Chain of cathepsin D (CatD) (P07339 65-412): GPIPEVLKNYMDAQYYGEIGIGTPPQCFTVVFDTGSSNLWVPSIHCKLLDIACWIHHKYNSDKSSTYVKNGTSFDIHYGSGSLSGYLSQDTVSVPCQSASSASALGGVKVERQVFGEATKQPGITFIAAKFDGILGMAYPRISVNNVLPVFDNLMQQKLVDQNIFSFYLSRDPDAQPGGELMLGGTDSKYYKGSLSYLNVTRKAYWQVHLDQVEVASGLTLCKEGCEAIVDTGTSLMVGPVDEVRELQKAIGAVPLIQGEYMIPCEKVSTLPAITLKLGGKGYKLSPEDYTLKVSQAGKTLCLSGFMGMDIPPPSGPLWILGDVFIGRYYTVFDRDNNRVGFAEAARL
Description: as §1

[4] = test system: P. falciparum Pf3D7^0087/N9; experiment: In vivo efficacy against P. falciparum in the TAD PfalcHuMouse model; conditions: three times a day for 4 days at 40 mg/kg, oral; 40 mg/kg
Description: Therapeutic efficacy studies were performed at TAD using a standardized humanized mouse model of P. falciparum malaria[31] with modifications.[34] […] The volume of injections was 1 and 0.7 mL for i.p. or i.v. inoculation, respectively.
The inoculum was obtained from peripheral blood of CO2-euthanized donor mice harboring 5–10% parasitemia.
Before drug administration, each infected mouse was randomly assigned to its corresponding treatment. […] The treatment was administered by oral gavage with 20G straight reusable feeding needles (Fine Science Tools GmbH) at 10 mL·kgbodyweight^–1 unless otherwise stated.
Parasitemia was measured in serial 2 μL of samples of tail blood by flow cytometry and expressed as the % of parasitized erythrocytes with respect to the total erythrocytes in circulation.
The clearance of parasitized erythrocytes from the peripheral blood of mice was assessed by measuring the parasite reduction ratio (PRR) calculated as the ratio between parasitemia at Day n + 2 divided by parasitemia at Day n for each individual of the study.
The parasiticidal effect of drugs in vivo was assessed by measuring the day of recrudescence (DoR) as described.[34] In short, DoR was defined as the day at which parasitemia after drug treatment reached the % parasitemia at treatment inception. Drug-treated mice were deemed cured if there was no detectable parasitemia 60 days after treatment.

[5] = recombinant PMX, read-out: PMX, nM (IC50)
[6] = Table 3, read-out: PMIV, nM (as listed in Table 3)
[7] = Table 3, read-out: PMX, nM (as listed in Table 3)

CCCN(CCC)C(=O)c1cccc(C(=O)N[C@@H](Cc2ccccc2)[C@H](O)CNC(C)(C)c2cccc(OC)c2)c1 [6a]
half-life at 1 h, 5 μM [1]: 6.4 min
microsomal CLint at 1 h, 5 μM [1]: 216 µL/min/mg
fraction unbound at 2 h, 5 µM [2]: 0.009
IC50 [3, 5]: 6.2 ± 0.3 nM

COc1cccc(C(C)(C)NC[C@@H](O)[C@@H]2Cc3cccc(c3)OCCCCNC(=O)c3cccc(c3)C(=O)N2)c1 [7b, (S)-4-((R)-1-Hydroxy-2-((2-(3-methoxyphenyl)propan-2-yl)amino)ethyl)-7-oxa-3,12-diaza-1,6(1,3)-dibenzenacyclotridecaphane-2,13-dione]
IC50 (PMIV): 60 ± 3 nM
IC50 (PMIV; read-out: PMIV, nM (IC50)): 510 ± 30 nM
half-life at 1 h, 5 μM [1]: 31.3 min
microsomal CLint at 1 h, 5 μM [1]: 44.3 µL/min/mg
IC50 (BACE1): 910 ± 40 nM
fraction unbound at 2 h, 5 µM [2]: 0.0274
IC50 (cathepsin D (CatD)): 650 ± 30 nM
IC50 [3]: 4.1 ± 0.3 nM
IC50 [3, 5]: 11.2 ± 0.7 nM

COc1cccc(C(C)(C)NC[C@@H](O)[C@@H]2Cc3cccc(c3)OCCCCN(C)C(=O)c3cccc(c3)C(=O)N2)c1 [7c, (S)-4-((R)-1-Hydroxy-2-((2-(3-methoxyphenyl)propan-2-yl)amino)ethyl)-12-methyl-7-oxa-3,12-diaza-1,6(1,3)-dibenzenacyclotridecaphane-2,13-dione]
IC50 (PMIV): 510 ± 30 nM
IC50 (PMIV; read-out: PMIV, nM (IC50)): 170 ± 20 nM
half-life at 1 h, 5 μM [1]: 16.9 min
microsomal CLint at 1 h, 5 μM [1]: 81.9 µL/min/mg
IC50 (BACE1): 1030 ± 50 nM
fraction unbound at 2 h, 5 µM [2]: 0.0351
IC50 (cathepsin D (CatD)): 320 ± 20 nM
IC50 [3]: 11.2 ± 0.7 nM
IC50 [3, 5]: 5.3 ± 3 nM

COc1cccc(C(C)(C)NC[C@@H](O)[C@@H]2Cc3cccc(c3)OCCCCN(CCC(F)(F)F)C(=O)c3cccc(c3)C(=O)N2)c1 [7d, (S)-4-((R)-1-Hydroxy-2-((2-(3-methoxyphenyl)propan-2-yl)amino)ethyl)-12-(3,3,3-trifluoropropyl)-7-oxa-3,12-diaza-1,6(1,3)-dibenzenacyclotridecaphane-2,13-dione]
IC50 (PMIV): 170 ± 20 nM
IC50 (PMIV; read-out: PMIV, nM (IC50)): 61 ± 4 nM
half-life at 1 h, 5 μM [1]: 20.4 min
microsomal CLint at 1 h, 5 μM [1]: 67.9 µL/min/mg
IC50 (BACE1): 2100 ± 100 nM
fraction unbound at 2 h, 5 µM [2]: 0.0125
IC50 (cathepsin D (CatD)): 230 ± 20 nM
IC50 [3]: 5.3 ± 3 nM
IC50 [3, 5]: 8.6 ± 2.4 nM

COc1cccc(C(C)(C)NC[C@@H](O)[C@@H]2Cc3cccc(c3)OCCCCN(CC(C)(C)C)C(=O)c3cccc(c3)C(=O)N2)c1 [7e]
IC50 (PMIV): 61 ± 4 nM
IC50 (PMIV; read-out: PMIV, nM (IC50)): 40 nM
half-life at 1 h, 5 μM [1]: 13.7 min
microsomal CLint at 1 h, 5 μM [1]: 101 µL/min/mg
IC50 (BACE1): 1900 ± 100 nM
fraction unbound at 2 h, 5 µM [2]: 0.0035
IC50 (cathepsin D (CatD)): 630 nM
IC50 [3]: 8.6 ± 2.4 nM
IC50 [3, 5]: 2.5 ± 0.2 nM

COc1cccc(C(C)(C)NC[C@@H](O)[C@@H]2Cc3cccc(c3)OCCCCN(CCN(C)C)C(=O)c3cccc(c3)C(=O)N2)c1 [7f, (S)-12-(2-(Dimethylamino)ethyl)-4-((R)-1-hydroxy-2-((2-(3-methoxyphenyl)propan-2-yl)amino)ethyl)-7-oxa-3,12-diaza-1,6(1,3)-dibenzenacyclotridecaphane-2,13-dione]
effect on parasite burden [4]: only a weak effect on parasite burden; also recorded: measurable reduction in parasitemia
IC50 (PMIV): 40 nM
IC50 (PMIV; read-out: PMIV, nM (IC50)): 1730 ± 90 nM
half-life at 5 μM [1]: > 120 min
IC50 (BACE1): 52400 ± 1600 nM
fraction unbound at 2 h, 5 µM [2]: 0.0695
IC50 (cathepsin D (CatD)): 6800 ± 340 nM
IC50 [3]: 2.5 ± 0.2 nM
reduction of PMX inhibitory potency ([3]; compared to analogue 7a): 4 fold
IC50 [3, 5]: 16.7 ± 1.5 nM

CCCN1CCCCCOc2cccc(c2)C[C@@H]([C@H](O)CNC(C)(C)c2cccc(OC)c2)NC(=O)c2cccc(c2)C1=O [7g, (S)-4-((R)-1-Hydroxy-2-((2-(3-methoxyphenyl)propan-2-yl)amino)ethyl)-13-propyl-7-oxa-3,13-diaza-1,6(1,3)-dibenzenacyclotetradecaphane-2,14-dione]
IC50 (PMIV; [6]): 190 nM
IC50 (PMIV; read-out: PMIV, nM (IC50)): 190 nM
half-life at 1 h, 5 μM [1]: 7.64 min
microsomal CLint at 1 h, 5 μM [1]: 181 µL/min/mg
IC50 (BACE1): 6000 ± 300 nM
fraction unbound at 2 h, 5 µM [2]: 0.0079
IC50 (cathepsin D (CatD)): 1200 nM
IC50 [3, 7]: 6.9 ± 0.49 nM
IC50 [3, 5]: 6.9 ± 0.49 nM

CCCN1CCOc2cccc(c2)C[C@@H]([C@H](O)CNC(C)(C)c2cccc(OC)c2)NC(=O)c2cccc(c2)C1=O [7h]
IC50 (PMIV; [6]): 200 nM
IC50 (PMIV; read-out: PMIV, nM (IC50)): 200 nM
half-life at 1 h, 5 μM [1]: 13.9 min
microsomal CLint at 1 h, 5 μM [1]: 99.8 µL/min/mg
IC50 (BACE1): 1850 ± 90 nM
fraction unbound at 2 h, 5 µM [2]: 0.0384
IC50 (cathepsin D (CatD)): 600 nM
IC50 [3, 7]: 6.8 ± 0.59 nM
IC50 [3, 5]: 6.8 ± 0.59 nM

CCCN1CCOCCc2cccc(c2)C[C@@H]([C@H](O)CNC(C)(C)c2cccc(OC)c2)NC(=O)c2cccc(c2)C1=O [7i, (S)-4-((R)-1-Hydroxy-2-((2-(3-methoxyphenyl)propan-2-yl)amino)ethyl)-12-propyl-9-oxa-3,12-diaza-1,6(1,3)-dibenzenacyclotridecaphane-2,13-dione]
IC50 (PMIV; [6]): 81 ± 4 nM
IC50 (PMIV; read-out: PMIV, nM (IC50)): 81 ± 4 nM
half-life at 1 h, 5 μM [1]: 8.39 min
microsomal CLint at 1 h, 5 μM [1]: 165 µL/min/mg
IC50 (BACE1): 22700 ± 1100 nM
fraction unbound at 2 h, 5 µM [2]: 0.0287
IC50 (cathepsin D (CatD)): 1650 ± 80 nM
IC50 [3, 7]: 4.6 ± 0.07 nM
IC50 [3, 5]: 4.6 ± 0.07 nM
